Test results from patent US5270325A, “P-hydroxy phenone derivatives used in the treatment of cardiac arrhythmia” (BASF Aktiengesellschaft, priority 1988, dated 1993).

Test system: QT interval
Assay: Class III antiarrhythmic action in guinea-pigs after intravenous administration (increase in the QT interval, ECG)
Assay type: in vivo, Pirbright white guinea-pigs
Conditions: Cavia porcellus, anesthetized (urethane) guinea-pigs, ED 20% from linear relation between log dose and relative increase in the QT interval
Procedure: The experimental animals are male and female Pirbright white guinea-pigs weighing from 300 to 500 g. They are anesthetized with 1.5 g/kg urethane i.p. The substances are administered intravenously. The ECG conduction times and the heart rate are measured from a recording from extremity lead II. The measured variables are the QT and PQ intervals and the heart rate. 4 to 6 animals are used per dose. The criterion of a class III action is an increase in the QT interval compared with the values before administration of the substance. An increase in PQ and a large decrease in the heart rate serve as exclusion criteria. The ED 20% is calculated from the linear relation between log dose (mg/kg) of the substance and the relative increase in the QT interval (in %).
`Cc1cc(C(=O)/C=C/c2ccccc2C(F)(F)F)cc(C)c1OCCN1CCCC1.O=C(O)/C=C/C(=O)O` [Example 5, 3',5'-Dimethyl-4'-[2-(1-pyrrolidinyl)ethoxy]-2-trifluoromethylchalcone fumarate] gave an ED (20%) of 1 mg/kg. With `Cc1ccsc1/C=C/C(=O)c1cc(C)c(OCCN2CCCC2)c(C)c1.O=C(O)/C=C/C(=O)O` [Example 4, 3,5-Dimethyl-4-[2-(1-pyrrolidinyl)ethoxy]phenyl E-2-(3-methyl-2-thienyl)ethenyl ketone fumarate] the ED (20%) was 1.2 mg/kg. Compound `Cc1cc(C(=O)/C=C/c2cccn2C)cc(C)c1OCCN1CCCC1.O=C(O)/C=C/C(=O)O` [Example 2, 3,5-Dimethyl-4-[2-(1-pyrrolidinyl)ethoxy]phenyl E-2-(1-methyl-2-pyrrolyl)ethenyl ketone fumarate] has an ED (20%) of 1.1 mg/kg. `CC(C)NCC(O)c1ccc(NS(C)(=O)=O)cc1` (single isomer, unassigned) [D-Sotalol] gave an ED (20%) of 3.6 mg/kg.

Test system: arrhythmias
Assay: not given
Conditions: literature: Circulation 68 (1983) 88-94; Am. Heart J. 109 (1985) 949-958; J. Clin. Pharmacol. 27 (1987) 708; cited from earlier work
For `CCCCc1oc2ccccc2c1C(=O)c1cc(I)c(OCCN(CC)CC)c(I)c1` [amiodarone], the “acting against arrhythmias which are otherwise resistant to therapy” value is given as “acting against arrhythmias which are otherwise resistant to therapy, especially reentry arrhythmias”. For `CC(C)NCC(O)c1ccc(NS(C)(=O)=O)cc1` (single isomer, unassigned) [D-Sotalol], the “acting against arrhythmias which are otherwise resistant to therapy” value is given as “acting against arrhythmias which are otherwise resistant to therapy, especially reentry arrhythmias”.
